We go through 22 compounds from US20230357249A1, “ANDROGEN RECEPTOR PROTEIN DEGRADERS WITH A TRICYCLIC CEREBLON LIGAND” (THE REGENTS OF THE UNIVERSITY OF MICHIGAN, priority 2020, published 2023).

The target in the assay is T1, AR protein (Homo sapiens, UniProt P10275).
T1 construct: endogenous in cells; host or cells: VCaP
T1 sequence (P10275 1-920): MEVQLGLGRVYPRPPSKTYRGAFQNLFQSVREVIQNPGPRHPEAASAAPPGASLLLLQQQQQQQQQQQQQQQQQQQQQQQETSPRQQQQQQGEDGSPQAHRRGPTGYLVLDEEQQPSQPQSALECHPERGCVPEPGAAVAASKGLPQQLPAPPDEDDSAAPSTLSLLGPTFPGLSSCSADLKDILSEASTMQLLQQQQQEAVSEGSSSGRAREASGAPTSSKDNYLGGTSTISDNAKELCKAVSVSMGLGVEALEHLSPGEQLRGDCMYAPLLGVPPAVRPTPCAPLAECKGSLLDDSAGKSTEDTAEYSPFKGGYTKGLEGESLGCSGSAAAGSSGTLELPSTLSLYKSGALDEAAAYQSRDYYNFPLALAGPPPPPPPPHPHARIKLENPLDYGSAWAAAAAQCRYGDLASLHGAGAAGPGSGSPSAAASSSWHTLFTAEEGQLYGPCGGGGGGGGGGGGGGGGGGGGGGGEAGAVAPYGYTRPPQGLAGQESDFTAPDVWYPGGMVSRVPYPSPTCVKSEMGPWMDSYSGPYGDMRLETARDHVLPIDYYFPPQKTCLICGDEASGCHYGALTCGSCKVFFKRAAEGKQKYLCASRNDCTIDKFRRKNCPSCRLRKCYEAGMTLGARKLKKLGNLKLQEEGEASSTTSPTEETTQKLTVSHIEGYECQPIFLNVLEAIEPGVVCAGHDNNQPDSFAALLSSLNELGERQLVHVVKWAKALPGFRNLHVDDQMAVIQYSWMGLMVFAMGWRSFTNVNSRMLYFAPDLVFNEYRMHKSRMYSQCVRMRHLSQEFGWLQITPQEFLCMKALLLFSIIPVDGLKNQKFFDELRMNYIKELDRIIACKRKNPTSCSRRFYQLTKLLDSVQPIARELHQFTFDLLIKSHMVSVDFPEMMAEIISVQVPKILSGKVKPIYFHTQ
As to the kind of experiment: AR protein degradation in VCaP cells, Western blotting. The class given is cell-based. On the set-up: key to AR protein degradation VCap 10 nM / AR protein degradation VCap 100 nM: A: >90% degradation (24 hr treatment); B: >50% degradation but <90% (24 hr treatment); C: >10% degradation but <50% (24 hr treatment); D: No significant degradation (24 hr treatment). To be noted: 24 hr treatment; for percent AR protein degradation at 0.01 µM / AR protein degradation VCap 10 nM: 10 nM; for percent AR protein degradation at 0.1 µM / AR protein degradation VCap 100 nM: 100 nM. As for the experimental part: The appropriate cell line, e.g., prostate cancer LNCaP, Vcap, or 22RV1 cell line, was treated with Compounds of the Disclosure as indicated. The treated cells were lysed with RIPA buffer. The AR level in the cell lysates was examined by western blotting and a specific AR antibody (ab194196, Abcam, Cambridge, MA 02139) with concentration of 1:20,000. GAPDH was used as a loading control.
Bands were quantified with ImageJ software. The relative numbers of each band obtained from normalization with its corresponding GAPDH level were compared with Prism 8 software. The DC50 values were produced from Prism 8, and the DC90 values were calculated with an equation=Bottom + (Top-Bottom)/(1+10^((LogEC50-X)*HillSlope) based on DC50 and Hillslope values.
The amount of AR protein degradation in VCap and MDA-MB-453 cells caused by representative Compounds of the Disclosure at the concentrations indicated is presented in Table 4, FIG. 1, and FIG. 2.
A general note: Immunoblotting shows a protein as a band on a membrane.

Compound `CN(c1ccc(C#N)c(Cl)c1)C1CCC(NC(=O)c2ccc(N3CCC(N4Cc5cc6c(cc5C4)C(=O)N(C4CCC(=O)NC4=O)C6=O)CC3)cc2)CC1` (centres unmarked) [compound 19, N-((1r,4r)-4-((3-chloro-4-cyanophenyl)(methyl)amino)cyclohexyl)-4-(4-(6-(2,6-dioxopiperidin-3-yl)-5,7-dioxo-3,5,6,7-tetrahydropyrrolo [3,4-f]isoindol-2(1H)-yl)piperidin-1-yl)benzamide] returned a percent AR protein degradation at 0.01 µM of more than 90% and a percent AR protein degradation at 0.1 µM of more than 90%.

On to `N#Cc1ccc(O[C@H]2CC[C@H](NC(=O)c3ccc4c(c3)CCN(CC(=O)N3Cc5cc6c(cc5C3)C(=O)N(C3CCC(=O)NC3=O)C6=O)C4)CC2)cc1Cl` (some centres unmarked) [compound 27, N-((1r,4r)-4-(3-chloro-4-cyanophenoxy)cyclohexyl)-2-(2-(6-(2,6-dioxopiperidin-3-yl)-5,7-dioxo-3,5,6,7-tetrahydropyrrolo[3,4-f]isoindol-2(1H)-yl)-2-oxoethyl)-1,2,3,4-tetrahydroisoquinoline-6-carboxamide], for which the percent AR protein degradation at 0.01 µM fell in the range of 50 to 90% and the percent AR protein degradation at 0.1 µM is more than 90%.

As for `N#Cc1ccc(OC2CCN(C(=O)Oc3ccc(C(=O)N4CCC(CN5Cc6cc7c(cc6C5)C(=O)N(C5CCC(=O)NC5=O)C7=O)CC4)cc3)CC2)cc1Cl` (centres unmarked) [compound 131], the “AR protein degradation VCap 10 nM” value was “D” and the percent AR protein degradation at 0.1 µM was 10 to 50%.

In turn, `N#Cc1ccc(O[C@H]2CC[C@H](NC(=O)c3ccc(N4CC(CN5Cc6cc7c(cc6C5)C(=O)N(C5CCC(=O)NC5=O)C7=O)C4)cc3)CC2)cc1Cl` (some centres unmarked) [compound 21] came in with a percent AR protein degradation at 0.01 µM of 50 to 90% and a percent AR protein degradation at 0.1 µM of more than 90%.

In the case of `C[C@@H]1CN(C(=O)c2ccc(N3CCC(CN4Cc5cc6c(cc5C4)C(=O)N(C4CCC(=O)NC4=O)C6=O)CC3)cc2)C[C@H]1Oc1ccc(C#N)c(Cl)c1` (some centres unmarked) [compound 122], the “AR protein degradation VCap 10 nM” value was “D” and the “AR protein degradation VCap 100 nM” value is given as “D”.

As to `C[C@@H]1CCN(C(=O)c2ccc(N3CCC(CN4Cc5cc6c(cc5C4)C(=O)N(C4CCC(=O)NC4=O)C6=O)CC3)cc2)C[C@H]1Oc1ccc(C#N)c(Cl)c1` (some centres unmarked) [compound 121], the “AR protein degradation VCap 10 nM” value is reported as “D” and the “AR protein degradation VCap 100 nM” value is reported as “D”.

As for `CN(c1ccc(C#N)c(Cl)c1)[C@H]1CC[C@H](NC(=O)c2ccc(O[C@H]3CC[C@H](N4Cc5cc6c(cc5C4)C(=O)N(C4CCC(=O)NC4=O)C6=O)CC3)cc2)CC1` (some centres unmarked) [compound 281, N-((1r,4r)-4-((3-Chloro-4-Cyanophenyl)(Methyl)Amino)Cyclohexyl)-4-(((1r,4r)-4-(6-(2,6-Dioxopiperidin-3-Yl)-5,7-Dioxo-3,5,6,7-Tetrahydropyrrolo[3,4-F]Isoindol-2(1h)-Yl)Cyclohexyl)Oxy)Benzamide], the percent AR protein degradation at 0.01 µM was more than 90% and the percent AR protein degradation at 0.1 µM is more than 90%.

Compound `N#Cc1ccc(N[C@H]2CC[C@H](NC(=O)c3ccc(N4CC(CN5Cc6cc7c(cc6C5)C(=O)N(C5CCC(=O)NC5=O)C7=O)C4)cc3)CC2)cc1Cl` (some centres unmarked) [compound 22] yielded a percent AR protein degradation at 0.01 µM of 50 to 90% and a percent AR protein degradation at 0.1 µM of more than 90%.

As for `CN(c1ccc(C#N)c(Cl)c1)[C@H]1CC[C@H](NC(=O)c2ccc(C3CCN(CC(=O)N4Cc5cc6c(cc5C4)C(=O)N(C4CCC(=O)NC4=O)C6)CC3)cc2)CC1` (some centres unmarked) [compound 328, N-((1r,4r)-4-((3-Chloro-4-Cyanophenyl)(Methyl)Amino)Cyclohexyl)-4-(1-(2-(6-(2,6-Dioxopiperidin-3-Yl)-5-Oxo-3,5,6,7-Tetrahydropyrrolo[3,4-F]Isoindol-2(1h)-Yl)-2-Oxoethyl)Piperidin-4-Yl)Benzamide], the percent AR protein degradation at 0.01 µM was more than 90% and the percent AR protein degradation at 0.1 µM is more than 90%.

`N#Cc1ccc(O[C@H]2CC[C@H](N3Cc4cc(C(=O)N5CCC(CN6Cc7cc8c(cc7C6)C(=O)N(C6CCC(=O)NC6=O)C8=O)CC5)ccc4C3=O)CC2)cc1Cl` (some centres unmarked) [compound 174]: the “AR protein degradation VCap 10 nM” value is “D” and the percent AR protein degradation at 0.1 µM was more than 90%.

`CC1(C)C(Nc2ccc(C(=O)N3CCC(CN4Cc5cc6c(cc5C4)C(=O)N(C4CCC(=O)NC4=O)C6=O)CC3)cc2)C(C)(C)C1Oc1ccc(C#N)c(Cl)c1` (centres unmarked) [compound 175] yielded a percent AR protein degradation at 0.01 µM of 10 to 50% and a percent AR protein degradation at 0.1 µM of 50 to 90%.

`CN(c1ccc(C#N)c(Cl)c1)[C@H]1CC[C@H](NC(=O)c2ccc(N3CC(CN4Cc5cc6c(cc5C4)C(=O)N(C4CCC(=O)NC4=O)C6=O)C3)cc2)CC1` (some centres unmarked) [compound 23] registered a percent AR protein degradation at 0.01 µM of more than 90% and a percent AR protein degradation at 0.1 µM of more than 90%.

`CN(c1ccc(C#N)c(Cl)c1)[C@H]1CC[C@H](NC(=O)c2ccc(N3CCC(CN4Cc5cc6c(cc5C4)C(=O)N(C4CCC(=O)NC4=O)C6=O)CC3)cc2)CC1` (some centres unmarked) [compound 20, N-((1r,4r)-4-((3-chloro-4-cyanophenyl)(methyl)amino)cyclohexyl)-4-(4-((6-(2,6-dioxopiperidin-3-yl)-5,7-dioxo-3,5,6,7-tetrahydropyrrolo [3,4-f]isoindol-2(1H)-yl)methyl)piperidin-1-yl)benzamide] yielded a percent AR protein degradation at 0.01 µM of more than 90% and a percent AR protein degradation at 0.1 µM of more than 90%.

In the case of `N#Cc1ccc(O[C@H]2CC[C@H](Nc3ccc(C(=O)N4CCC(N5Cc6cc7c(cc6C5)C(=O)N(C5CCC(=O)NC5=O)C7=O)CC4)cc3)CC2)cc1Cl` (some centres unmarked) [compound 10], the “AR protein degradation VCap 10 nM” value is recorded as “D” and the percent AR protein degradation at 0.1 µM is 50 to 90%.

With `N#Cc1ccc(O[C@H]2CC[C@H](Oc3ccc(C(=O)N4CCC(N5Cc6cc7c(cc6C5)C(=O)N(C5CCC(=O)NC5=O)C7=O)CC4)cc3)CC2)cc1Cl` (some centres unmarked) [compound 11], the “AR protein degradation VCap 10 nM” value is on record as “D” and the “AR protein degradation VCap 100 nM” value is given as “D”.

`N#Cc1ccc(O[C@H]2CC[C@H](NC(=O)c3ccc4c(c3)CCN(C(=O)CN3Cc5cc6c(cc5C3)C(=O)N(C3CCC(=O)NC3=O)C6=O)C4)CC2)cc1Cl` (some centres unmarked) [compound 24]: the percent AR protein degradation at 0.01 µM is more than 90% and the percent AR protein degradation at 0.1 µM was more than 90%.

Consider `C[C@H]1C[C@@H](NC(=O)c2ccc(N3CCC(CN4Cc5cc6c(cc5C4)C(=O)N(C4CCC(=O)NC4=O)C6=O)CC3)cc2)CC[C@@H]1Oc1ccc(C#N)c(Cl)c1` (some centres unmarked) [compound 15], for which the percent AR protein degradation at 0.01 µM was more than 90% and the percent AR protein degradation at 0.1 µM was more than 90%.

As for `N#Cc1ccc(OC2CC3(CC(NC(=O)c4ccc(N5CCC(CN6Cc7cc8c(cc7C6)C(=O)N(C6CCC(=O)NC6=O)C8=O)CC5)cc4)C3)C2)cc1Cl` (centres unmarked) [compound 124], the “AR protein degradation VCap 10 nM” value is on record as “D” and the percent AR protein degradation at 0.1 µM lay in the range of 50 to 90%.

Compound `CC1(C)[C@H](Oc2ccc(C#N)c(Cl)c2)C(C)(C)[C@H]1N1Cc2cc(C(=O)N3CCC(CCN4Cc5cc6c(cc5C4)C(=O)N(C4CCC(=O)NC4=O)C6=O)CC3)ccc2C1=O` (some centres unmarked) [compound 7] displayed a percent AR protein degradation at 0.01 µM of 50 to 90% and a percent AR protein degradation at 0.1 µM of more than 90%.

Compound `CN(c1ccc(C#N)c(Cl)c1)[C@H]1CC[C@H](NC(=O)c2ccc(N3CCC(CN4Cc5cc6c(cc5C4)C(=O)N(C4CCC(=O)NC4=O)C6=O)CC3)cn2)CC1` (some centres unmarked) [compound 324] had a percent AR protein degradation at 0.01 µM of more than 90% and a percent AR protein degradation at 0.1 µM of more than 90%.

`N#Cc1ccc(N[C@H]2CC[C@H](NC(=O)c3ccc(N4CCC(CN5Cc6cc7c(cc6C5)C(=O)N(C5CCC(=O)NC5=O)C7=O)CC4)cc3)CC2)cc1Cl` (some centres unmarked) [compound 18]: the percent AR protein degradation at 0.01 µM lay in the range of 50 to 90% and the percent AR protein degradation at 0.1 µM is more than 90%.

`N#Cc1ccc(N[C@H]2CC[C@H](NC(=O)c3ccc(N4CCC(N5Cc6cc7c(cc6C5)C(=O)N(C5CCC(=O)NC5=O)C7=O)CC4)cc3)CC2)cc1Cl` (some centres unmarked) [compound 17] gave a percent AR protein degradation at 0.01 µM of more than 90% and a percent AR protein degradation at 0.1 µM of more than 90%.
